Data published in patent US20240239767A1 (AstraZeneca AB, priority 2022, published 2024).

Columns and labels:
PCSK9 [1] = target: T1, PCSK9 (Homo sapiens, UniProt Q8NBP7); conditions: clinical trials, compared to placebo (Elbitar 2016); cited from earlier work
Target sequence in this assay (Q8NBP7 153-692): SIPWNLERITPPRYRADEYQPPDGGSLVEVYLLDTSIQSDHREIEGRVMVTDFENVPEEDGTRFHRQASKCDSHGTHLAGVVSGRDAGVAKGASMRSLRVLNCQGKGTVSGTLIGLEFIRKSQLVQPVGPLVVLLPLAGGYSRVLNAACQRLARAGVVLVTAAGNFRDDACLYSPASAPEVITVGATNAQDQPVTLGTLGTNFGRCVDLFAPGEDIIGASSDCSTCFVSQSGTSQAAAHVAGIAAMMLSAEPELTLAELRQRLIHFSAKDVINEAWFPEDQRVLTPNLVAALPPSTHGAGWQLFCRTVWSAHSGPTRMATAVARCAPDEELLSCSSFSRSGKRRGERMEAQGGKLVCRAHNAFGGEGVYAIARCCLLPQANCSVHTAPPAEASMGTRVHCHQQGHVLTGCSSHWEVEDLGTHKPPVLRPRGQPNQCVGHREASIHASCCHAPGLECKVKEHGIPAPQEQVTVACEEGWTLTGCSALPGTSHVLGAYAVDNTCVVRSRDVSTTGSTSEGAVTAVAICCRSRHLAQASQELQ

PCSK9 [2] = target: T1, PCSK9; assay: Assay 2 - Biophysical human PCSK9 assay (SPR, Biacore); assay type: binding; design: biotinylated human PCSK9 (31-692)-Avi-His6; conditions: geometric mean; SPR single-cycle kinetics, 30° C.; read-out: Assay 2 (PCSK9 BIAcore DBA CR) GMean Kd
Protocol: The SPR binding experiments were performed on a Biacore S200 optical biosensor unit at 30° C. A Series S Sensor Chip SA that is designed to bind biotinylated molecules for interaction analysis in Biacore systems was equilibrated at room temperature prior to use. The running buffer for protein tethering and subsequent ligand binding experiments was 10 mM HEPES pH 7.4, 150 mM NaCl, 0.05% (v/v) Tween 20 pH 7.4.
For the surface tethering of PCSK9, biotinylated human PCSK9 (31-692)-Avi-His6 at a concentration of 0.5 mg/mL was used. Prior to the surface tethering, the surface was exposed to a solution of 50 mM NaOH, 500 mM NaCl via 3 consecutive injections of this solution with a contact time of 60 s and a flowrate of 10 μL min- to remove non-conjugated streptavidin. The PCSK9 protein was diluted to a concentration of 20 μg/mL using running buffer and injected with a contact time of 180-300 s and a flowrate of 10 μL min^−1 over a single flow channel (typically flow channel 2 or flow channel 4) with the aim to achieve protein capture levels of >5000 response units (RU). Remaining biotin binding sites were blocked via 2 consecutive injections of a 10 μM D-biotin solution in running buffer with a contact time of 60 s and a flowrate of 10 μL min^−1 over all flow-channels.
The binding experiments were all performed at a flow rate of 30 μL min^−1 and by employing the method of single-cycle kinetics. This approach involves the sequential injection of a compound concentration series without regeneration steps. A contact time between 90-150 s was selected, which was followed by a 40 min dissociation phase to allow for a proper estimation of the dissociation rate constant. Test compounds were delivered in DMSO at a concentration of 10 mM and a digital dispenser HP D300 was used to set up the compound concentration series using 6 concentrations. The tested concentrations have been 30, 100, 300, 1000, 3000 and 10000 nM. Prior to injecting any compound, the surfaces were equilibrated by injecting running buffer over them in three separate pulses. The data collection rate was set to 10 Hz.
The raw sensorgrams of the compound injections were first subjected to reference subtraction (subtracting the signal from flow channel 1 and/or 3 from the signal from channels 2 and/or 4 respectively) and then blank subtraction (subtracting the signal from injecting DMSO controls from the reference subtracted data). The resulting double-referenced sensorgrams were then fitted using a 1:1 binding interaction model using the manufactures software package to extract kinetic- and affinity data.
Target sequence in this assay (Q8NBP7 31-692): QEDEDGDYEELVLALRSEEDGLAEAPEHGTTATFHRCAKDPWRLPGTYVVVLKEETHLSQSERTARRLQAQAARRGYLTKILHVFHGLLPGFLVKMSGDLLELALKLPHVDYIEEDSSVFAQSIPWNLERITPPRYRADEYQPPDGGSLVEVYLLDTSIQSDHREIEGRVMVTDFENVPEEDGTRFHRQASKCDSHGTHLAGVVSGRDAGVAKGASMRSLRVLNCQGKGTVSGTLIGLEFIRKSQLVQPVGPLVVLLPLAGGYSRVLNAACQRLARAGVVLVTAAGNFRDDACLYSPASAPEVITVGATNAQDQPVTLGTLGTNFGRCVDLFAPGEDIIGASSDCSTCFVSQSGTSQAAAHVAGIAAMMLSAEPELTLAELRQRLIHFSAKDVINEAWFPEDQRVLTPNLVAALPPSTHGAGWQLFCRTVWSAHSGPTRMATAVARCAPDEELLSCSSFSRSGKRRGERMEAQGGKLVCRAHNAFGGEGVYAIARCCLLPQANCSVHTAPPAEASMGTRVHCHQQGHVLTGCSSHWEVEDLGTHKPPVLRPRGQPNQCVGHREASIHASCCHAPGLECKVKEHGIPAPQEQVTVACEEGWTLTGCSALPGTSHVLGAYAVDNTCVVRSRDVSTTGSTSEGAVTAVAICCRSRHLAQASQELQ

[3] = target: T2, potassium ion channel hERG (human Ether-á-go-go-Related Gene) (Homo sapiens, UniProt Q12809); assay: Assay 5 - hERG assay (SyncroPatch 384PE patch clamp, CHO cells); assay type: cell-based; conditions: geometric mean, CHO cells over-expressing hERG, read-out: Assay 5 (hERG Hu CHO IF EPh CR-Syncro) GMean IC50
T2 construct: expressed in transfected cells; host or cells: Chinese hamster ovary K1 (CHO)
T2 sequence (Q12809 whole entry): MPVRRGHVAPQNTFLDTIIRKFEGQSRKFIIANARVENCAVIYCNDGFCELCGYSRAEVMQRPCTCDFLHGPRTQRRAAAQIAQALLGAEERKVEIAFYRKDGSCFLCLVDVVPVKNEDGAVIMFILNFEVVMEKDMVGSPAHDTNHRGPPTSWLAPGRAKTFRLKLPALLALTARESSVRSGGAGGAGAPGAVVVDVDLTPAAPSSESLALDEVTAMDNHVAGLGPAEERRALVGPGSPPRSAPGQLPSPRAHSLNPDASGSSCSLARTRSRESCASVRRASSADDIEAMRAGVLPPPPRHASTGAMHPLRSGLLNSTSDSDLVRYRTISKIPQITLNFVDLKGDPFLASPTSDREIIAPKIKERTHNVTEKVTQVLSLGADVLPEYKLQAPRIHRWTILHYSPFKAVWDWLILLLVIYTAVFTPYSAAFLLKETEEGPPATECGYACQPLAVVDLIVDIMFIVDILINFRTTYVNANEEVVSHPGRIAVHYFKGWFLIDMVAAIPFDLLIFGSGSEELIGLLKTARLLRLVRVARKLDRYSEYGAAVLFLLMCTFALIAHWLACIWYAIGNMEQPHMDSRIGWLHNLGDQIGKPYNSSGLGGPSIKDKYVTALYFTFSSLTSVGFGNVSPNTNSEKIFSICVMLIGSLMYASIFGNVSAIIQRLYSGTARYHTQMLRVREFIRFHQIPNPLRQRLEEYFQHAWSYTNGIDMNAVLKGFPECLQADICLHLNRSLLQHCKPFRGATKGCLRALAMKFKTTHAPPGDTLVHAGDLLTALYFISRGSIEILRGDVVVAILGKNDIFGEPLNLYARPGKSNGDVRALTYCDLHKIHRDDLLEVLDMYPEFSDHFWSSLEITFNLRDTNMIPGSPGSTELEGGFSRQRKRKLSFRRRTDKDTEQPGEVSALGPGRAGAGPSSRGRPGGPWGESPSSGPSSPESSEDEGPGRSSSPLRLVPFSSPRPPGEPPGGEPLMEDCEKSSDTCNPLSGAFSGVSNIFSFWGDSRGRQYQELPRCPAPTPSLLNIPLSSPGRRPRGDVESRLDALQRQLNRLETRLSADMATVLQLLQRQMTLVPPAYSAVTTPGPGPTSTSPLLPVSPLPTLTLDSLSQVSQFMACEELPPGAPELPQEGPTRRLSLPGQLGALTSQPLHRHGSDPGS
Outline: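 Automated whole-cell patch clamp at room temperature on CHO-K1 cells over-expressing hERG, using K-fluoride/escin internal solution (pH 7.2) and NMDG-containing external solution (pH 7.4). Compounds were tested in a 6-point cumulative format, 0.33% final DMSO. Wells accepted only with seal >30 MegaOhm, Z′>0.4 and current >0.2 nA.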

PCSK9 [4] = target: T3, PCSK9 (Homo sapiens, UniProt Q8NBP7, G670E/V474I); assay: biochemical
Target sequence in this assay (Q8NBP7 with tags, fused parts or gaps V474I/G670E): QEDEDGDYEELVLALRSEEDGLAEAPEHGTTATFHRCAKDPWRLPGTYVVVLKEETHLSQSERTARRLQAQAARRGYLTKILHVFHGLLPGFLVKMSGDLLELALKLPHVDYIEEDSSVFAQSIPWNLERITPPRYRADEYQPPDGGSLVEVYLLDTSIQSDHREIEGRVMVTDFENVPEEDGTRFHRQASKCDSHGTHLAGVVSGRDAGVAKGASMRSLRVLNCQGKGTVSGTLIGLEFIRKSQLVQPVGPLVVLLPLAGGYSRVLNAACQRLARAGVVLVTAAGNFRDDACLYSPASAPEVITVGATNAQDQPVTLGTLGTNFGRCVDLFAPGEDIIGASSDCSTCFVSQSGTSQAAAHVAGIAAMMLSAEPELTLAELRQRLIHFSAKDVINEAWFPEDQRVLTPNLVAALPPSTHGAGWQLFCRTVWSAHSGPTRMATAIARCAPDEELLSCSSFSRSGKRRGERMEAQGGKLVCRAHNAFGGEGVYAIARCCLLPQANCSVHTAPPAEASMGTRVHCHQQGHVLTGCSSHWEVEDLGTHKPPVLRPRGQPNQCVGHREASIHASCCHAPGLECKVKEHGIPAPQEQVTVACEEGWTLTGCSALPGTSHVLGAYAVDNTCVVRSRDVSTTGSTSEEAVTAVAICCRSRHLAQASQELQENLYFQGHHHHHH

[5] = target: GSK3b (Glycogen synthase kinase-3 beta) (Homo sapiens, UniProt P49841); assay: Assay 6 - GSK3b assay (ThermoFisher, FRET Z-Lyte); assay type: biochemical; conditions: geometric mean; ATP Conc: 10.000 μM; read-out: Assay 6 (GSK3B FRET-Z-Lyte CR) GMean IC50 (μM) ATP Conc: 10.000
Chain of GSK3b (Glycogen synthase kinase-3 beta) (P49841 whole entry): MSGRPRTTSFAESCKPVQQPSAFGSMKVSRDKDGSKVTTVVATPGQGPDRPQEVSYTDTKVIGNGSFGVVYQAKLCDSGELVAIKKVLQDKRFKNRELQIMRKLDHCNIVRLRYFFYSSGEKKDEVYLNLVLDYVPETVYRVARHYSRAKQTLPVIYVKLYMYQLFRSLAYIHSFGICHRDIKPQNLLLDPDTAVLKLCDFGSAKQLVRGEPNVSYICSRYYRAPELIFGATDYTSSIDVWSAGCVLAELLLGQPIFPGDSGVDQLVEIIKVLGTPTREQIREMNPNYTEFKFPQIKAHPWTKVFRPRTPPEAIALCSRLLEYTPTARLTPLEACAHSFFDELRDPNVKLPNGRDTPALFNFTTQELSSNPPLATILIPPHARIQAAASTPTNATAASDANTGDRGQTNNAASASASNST
Outline: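 Z-Lyte FRET kinase assay: 0.22-0.92 ng GSK3β with 2 μM Ser/Thr 09 peptide in 50 mM HEPES pH 7.5, 10 mM MgCl2, 1 mM EGTA, 0.01% BRIJ-35, 60 min at room temperature, then 60 min development. Compounds in 1% DMSO, 10-point 3-fold dilutions from 10 μM; sigmoidal dose-response fit.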

PCSK9 [6] = target: T3, PCSK9; assay: cell-based
Target sequence in this assay (Q8NBP7 31-152): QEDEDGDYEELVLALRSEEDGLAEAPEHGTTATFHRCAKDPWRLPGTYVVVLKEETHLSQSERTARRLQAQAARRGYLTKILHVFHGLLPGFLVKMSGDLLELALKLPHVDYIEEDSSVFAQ
Target sequence in this assay (Q8NBP7 153-692 V474I/G670E): as the sequence (Q8NBP7 153-692) above, with V322I, G518E counted along it
Text: This assay measures for PCSK9 antagonist activity based on a test compound's capacity to restore LDL-C uptake in HepG2 cells. The assay is based on exogenous PCSK9 and LDL-C complexed with a pH-sensitive dye. Outside the cells, at neutral pH, the pHrodo Red-LDL is dimly fluorescent but upon LDLR mediated endocytosis it fluoresces brightly. PCSK9 traffics the LDLR to intracellular degradation and reduces uptake of LDL-C. Inhibition of PCSK9 reduces LDLR degradation and the increased LDL-C uptake is quantified by fluorescence microscopy.
Cell medium: MEM supplemented with 10% FBS, 1× NEAA and Sodium Pyruvate
Assay medium: OptiMem supplemented with penicillin/streptomycin
Cells: HepG2 (ATCC #HB-8065)
Cryopreserved HepG2 cells were thawed in assay medium and centrifuged for 5 min at 250 g. Supernatant was discarded and the cell pellet resuspended in cell medium and counted with a Nucleocounter. Cells were again centrifuged 5 min at 250 g and the pellet was resuspended to 500000 cells/mL in assay medium. • 2. 20 μL of above cell mix was dispensed into black pclear TC treated 384 well plates with Multidrop Combi and left at room temperature for 20 minutes. • 3. Plates were incubated at 37° C., 5% CO2 for 24 h
Test compounds were prepared in concentration response in DMSO with a half-log dilution factor in DMSO in Echo 384 LDV plates starting at 10 mM. • 2. 30 nL of above test compounds were dispensed with Echo 655 to cells for a top concentration of 10 μM • 3. […] Plates were incubated at 37° C., 5% CO2 for 24 h
10 μL pHrodo Red-LDL in assay medium was dispensed to cells with Multidrop Combi for 6 μg/mL • 2. Plates were incubated at 37° C., 5% CO2 and imaged with the Incucyte S3 after 4 h and 24 h
Image data was processed using Incucyte 2021, a software to identify cells and red fluorescent intensity. Screener was used to further process data. Data was normalized as % effect of the signal between median values of the on-plate controls of DMSO and 100 nM Evolocumab according to the formula % effect=−100*(x−DMSO)/(Evolocumab−DMSO) where x equals the measured signal. Concentration response data of the normalized values were fitted using a four-parameter logistic fit.

## alirocumab
PCSK9 [1]
  decrease in LDL levels: about 50%

## COc1ccc(=O)n(-c2ccc(N[C@H]3CC[C@H](Nc4nc5cccnc5s4)C3)nc2)c1 [Example 25, 5-Methoxy-6′-(((1S,3S)-3-(thiazolo[5,4-b]pyridin-2-ylamino)cyclopentyl)amino)-2H-[1,3′-bipyridin]-2-one]
PCSK9 [2]
  Kd: 4 nM
[3]
  IC50: > 40000 nM
PCSK9 [4]
  IC50: 5.6 nM
[5]
  IC50: 0.053 µM
PCSK9 [6]
  IC50: 51 nM

## O=c1ccccn1-c1ccc(N[C@H]2CC[C@H](Nc3nc4cccnc4[nH]3)C2)nc1 [Example 46, 6′-(((1S,3S)-3-((3H-Imidazo[4,5-b]pyridin-2-yl)amino)cyclopentyl)amino)-2H-[1,3′-bipyridin]-2-one]
PCSK9 [2]
  Kd: 6 nM
[3]
  IC50: > 40000 nM
PCSK9 [4]
  IC50: 4.4 nM
[5]
  IC50: 0.425 µM
PCSK9 [6]
  IC50: 102 nM

## COc1cccn(-c2ccc(N[C@H]3CC[C@H](Nc4nc5cccnc5s4)C3)nc2)c1=O [Example 21, 3-Methoxy-6′-(((1S,3S)-3-(thiazolo[5,4-b]pyridin-2-ylamino)cyclopentyl)amino)-2H-[1,3′-bipyridin]-2-one]
PCSK9 [2]
  Kd: 0.5 nM
[3]
  IC50: > 40000 nM
PCSK9 [4]
  IC50: 1.5 nM
[5]
  IC50: > 10 µM
PCSK9 [6]
  IC50: 100 nM

## O=c1c(Cl)cccn1-c1ccc(N[C@H]2CC[C@H](Nc3nc4cccnc4s3)C2)nc1 [Example 24, 3-Chloro-6′-(((1S,3S)-3-(thiazolo[5,4-b]pyridin-2-ylamino)cyclopentyl)amino)-2H-[1,3′-bipyridin]-2-one]
PCSK9 [2]
  Kd: 0.1 nM
[3]
  IC50: 13900 nM
PCSK9 [4]
  IC50: 0.7 nM
[5]
  IC50: > 10 µM
PCSK9 [6]
  IC50: 76 nM

## Cn1c(=O)n(-c2ccc(N[C@H]3CC[C@H](Nc4nc5cccnc5o4)C3)nc2)c2ncccc21 [Example 18, 1-Methyl-3-(6-(((1S,3S)-3-(oxazolo[5,4-b]pyridin-2-ylamino)cyclopentyl)amino)pyridin-3-yl)-1,3-dihydro-2H-imidazo[4,5-b]pyridin-2-one]
PCSK9 [2]
  Kd: 3 nM
[3]
  IC50: > 40000 nM
PCSK9 [4]
  IC50: 2.3 nM
[5]
  IC50: > 10 µM
PCSK9 [6]
  IC50: 52 nM

## O=C(O)c1ccc(=O)n(-c2ccc(N[C@H]3CC[C@H](Nc4nc5cccnc5[nH]4)C3)nc2)c1 [Example 44, 6′-(((1S,3S)-3-((3H-Imidazo[4,5-b]pyridin-2-yl)amino)cyclopentyl)amino)-2-oxo-2H-[1,3′-bipyridine]-5-carboxylic acid]
PCSK9 [2]
  Kd: 4 nM
[3]
  IC50: > 40000 nM
PCSK9 [4]
  IC50: 4.1 nM
[5]
  IC50: 7.91 µM
PCSK9 [6]
  IC50: 82 nM

## O=c1ccccn1-c1ccc(N[C@H]2CC[C@H](Nc3nc4c(Br)ccnc4[nH]3)C2)nc1 [Example 73, 6′-(((1S,3S)-3-((7-Bromo-3H-imidazo[4,5-b]pyridin-2-yl)amino)cyclopentyl)amino)-2H-[1,3′-bipyridin]-2-one]
PCSK9 [2]
  Kd: 5 nM
[3]
  IC50: > 40000 nM
PCSK9 [4]
  IC50: 4.7 nM
[5]
  IC50: 0.192 µM
PCSK9 [6]
  IC50: 280 nM

## Cc1cccn(-c2ccc(N[C@H]3CC[C@H](Nc4nc5cccnc5[nH]4)C3)nc2)c1=O [Example 40, 6′-(((1S,3S)-3-((3H-Imidazo[4,5-b]pyridin-2-yl)amino)cyclopentyl)amino)-3-methyl-2H-[1,3′-bipyridin]-2-one]
PCSK9 [2]
  Kd: 1 nM
[3]
  IC50: > 40000 nM
PCSK9 [4]
  IC50: 1.6 nM
[5]
  IC50: 8.15 µM
PCSK9 [6]
  IC50: 90 nM

## O=c1ccc2cccnc2n1-c1ccc(N[C@H]2CC[C@H](Nc3nc4cccnc4[nH]3)C2)nc1 [Example 34, 1-(6-(((1S,3S)-3-((3H-Imidazo[4,5-b]pyridin-2-yl)amino)cyclopentyl)amino)pyridin-3-yl)-1,8-naphthyridin-2(1H)-one]
PCSK9 [2]
  Kd: 1 nM
[3]
  IC50: > 40000 nM
PCSK9 [4]
  IC50: 1.2 nM
[5]
  IC50: > 10 µM
PCSK9 [6]
  IC50: 98 nM
